In assay [1] the test system is Escherichia coli. Kind of assay: Induction of Cu2+-dependent DNA cleavage in pSP64 DNA assessed as form 2 DNA formation at 0.01 uM.
Assay [2] deals with Escherichia coli. Kind of assay: Induction of Cu2+-dependent DNA cleavage in pSP64 DNA assessed as form 3 DNA formation.
Assay [3] deals with Escherichia coli. Nature of the assay: Induction of Cu2+-dependent DNA cleavage in pSP64 DNA assessed as form 2 DNA formation at 10 uM.
In assay [4] the test system is Escherichia coli. Kind of assay: Induction of Cu2+-dependent DNA cleavage in pSP64 DNA assessed as form 2 DNA formation at 5 uM.
Assay [5] deals with Escherichia coli. Nature of the assay: Induction of Cu2+-dependent DNA cleavage in pSP64 DNA assessed as form 2 DNA formation at 1 uM.
In assay [6] the test system is Escherichia coli. Nature of the assay: Induction of Cu2+-dependent DNA cleavage in pSP64 DNA assessed as form 2 DNA formation at 0.1 uM.

Active and inactive are the calls of the source. The calls are words filed in the database; no cut-off is given here.

As for `CC1=CC(=O)O[C@H]1COC(=O)/C=C/c1ccc(O)c(O)c1`, the Activity was found to be 16% with Escherichia coli [1]; 92% in the assay on Escherichia coli [3]; 88% in the assay on Escherichia coli [4]; 68% with Escherichia coli [5]; 32% in the assay on Escherichia coli [6]. Further, the result in the assay on Escherichia coli [2] was inactive.

These data come from ChEMBL document CHEMBL1158722, “Umbelactonyl cinnamate derivatives from Crypteronia paniculata that mediate DNA strand scission” (J Nat Prod, 2005).
